This passage reports IC50 results from patent US20200085791A1, “[(PHENYLSULFONYL)OCTAHYDRO-EPIMINOISOINDOL-YL](1H-1,2,3-TRIAZOL-5-YL)METHANONES” (Bayer Pharma Aktiengesellschaft, priority 2016, published 2020).

For the assay, the target named is T1, recombinant human AKR1C3 (Aldo-keto reductase family 1 member C3) (Homo sapiens, UniProt P42330).
T1 construct: GST (cleaved yes); made in house; host or cells: E. coli
T1 sequence (P42330 1-323): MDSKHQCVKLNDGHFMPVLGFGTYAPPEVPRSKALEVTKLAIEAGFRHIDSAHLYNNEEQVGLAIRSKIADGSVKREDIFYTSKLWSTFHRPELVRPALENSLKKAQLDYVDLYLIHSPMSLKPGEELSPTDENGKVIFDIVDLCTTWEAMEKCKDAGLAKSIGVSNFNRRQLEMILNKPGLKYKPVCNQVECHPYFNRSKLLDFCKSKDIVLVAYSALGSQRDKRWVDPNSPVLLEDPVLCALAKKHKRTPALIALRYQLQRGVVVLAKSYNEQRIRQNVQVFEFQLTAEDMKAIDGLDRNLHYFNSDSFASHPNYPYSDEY
The assay is described as follows: In Vitro Assay 1: AKR1C3-inhibitory activity (Coumberone to Coumberol fluorescence assay). It counts as biochemical. The following applies: recombinant enzyme, Coumberone 0.3 μM, NADPH 10 μM, 15 min pre-incubation, 4-parameter fit; average or median values. In short, it runs like this:
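Recombinant human AKR1C3 (E. coli-expressed GST fusion, GST removed), typically ~1 nM, was preincubated 15 min with compound in 50 mM potassium phosphate pH 7 with 1 mM DTT. The reaction ran typically 90 min with 10 μM NADPH and 0.3 μM Coumberone (final), then was stopped with 1 μM EM-1404. Coumberol fluorescence (ex 380/em 520 nm) was normalized to no-inhibitor and no-enzyme controls.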
The term IC50 denotes the midpoint of a concentration-inhibition curve. Regarding `O=C(c1c[nH]nn1)N1C[C@@H]2[C@H](C1)[C@@H]1CC[C@H]2N1S(=O)(=O)c1cccc(Cl)c1C(F)(F)F` [Example 17, [(3aR,4S,7R,7aS)-8-{[3-chloro-2-(trifluoromethyl)phenyl]sulfonyl}octahydro-2H-4,7-epiminoisoindol-2-yl](1H-1,2,3-triazol-4-yl)methanone], the IC50 stood at 51 nM.
For `O=C(c1cnn[nH]1)N1C[C@@H]2[C@H](C1)[C@H]1CC[C@@H]2N1S(=O)(=O)c1cccc2nsnc12` [Example 45, [(3aR,4R,7S,7aS)-8-(2,1,3-benzothiadiazol-4-ylsulfonyl)octahydro-2H-4,7-epiminoisoindol-2-yl](1H-1,2,3-triazol-5-yl)methanone], the IC50 is 109 nM.
In the case of `O=C(c1cnn[nH]1)N1C[C@@H]2[C@H](C1)[C@@H]1CC[C@H]2N1S(=O)(=O)c1ccc(F)cc1` [Example 22, {(3aR,4S,7R,7aS)-8-[(4-fluorophenyl)sulfonyl]octahydro-2H-4,7-epiminoisoindol-2-yl}(1H-1,2,3-triazol-5-yl)methanone] it was 113 nM; in that of `N#Cc1c(Cl)cccc1S(=O)(=O)N1[C@@H]2CC[C@H]1[C@@H]1CN(C(=O)c3cnn[nH]3)C[C@@H]12` [Example 61, 2-chloro-6-{[(3aR,4R,7S,7aS)-2-(1H-1,2,3-triazol-5-ylcarbonyl)octahydro-1H-4,7-epiminoisoindol-8-yl]sulfonyl}benzonitrile], 84 nM; in that of `O=C(c1cnn[nH]1)N1C[C@@H]2[C@H](C1)[C@@H]1CC[C@H]2N1S(=O)(=O)c1ccccc1C(F)(F)F` [Example 1, 1H-1,2,3-triazol-5-yl[(3aR,4S,7R,7aS)-8-{[2-(trifluoromethyl)phenyl]sulfonyl}octahydro-2H-4,7-epiminoisoindol-2-yl]methanone], 2 nM.
In the case of `Cc1ccccc1S(=O)(=O)N1[C@@H]2CC[C@H]1[C@H]1CN(C(=O)c3c[nH]nn3)C[C@H]12` [Example 16, {(3aR,4S,7R,7aS)-8-[(2-methylphenyl)sulfonyl]octahydro-2H-4,7-epiminoisoindol-2-yl}(1H-1,2,3-triazol-4-yl)methanone], the IC50 was determined as 5 nM.
As to `O=C(c1cnn[nH]1)N1C[C@@H]2[C@H](C1)[C@H]1CC[C@@H]2N1S(=O)(=O)c1ccccc1[N+](=O)[O-]` [Example 35, {(3aR,4R,7S,7aS)-8-[(2-nitrophenyl)sulfonyl]octahydro-2H-4,7-epiminoisoindol-2-yl}(1H-1,2,3-triazol-5-yl)methanone], the IC50 was found to be 4 nM.
Take `COc1ccccc1S(=O)(=O)N1[C@@H]2CC[C@H]1[C@@H]1CN(C(=O)c3cnn[nH]3)C[C@@H]12` [Example 54, {(3aR,4R,7S,7aS)-8-[(2-methoxyphenyl)sulfonyl]octahydro-2H-4,7-epiminoisoindol-2-yl}(1H-1,2,3-triazol-5-yl)methanone]: the half-maximal inhibitory concentration (IC50) was found to be 13 nM.
With `O=C(c1cnn[nH]1)N1[C@@H]2CC[C@H]1[C@H]1CN(S(=O)(=O)c3cc(Cl)cc(Cl)c3)C[C@H]12` [Example 28, {(3aR,4S,7R,7aS)-2-[(3,5-dichlorophenyl)sulfonyl]octahydro-1H-4,7-epiminoisoindol-8-yl}(1H-1,2,3-triazol-5-yl)methanone], the IC50 came out at 21 nM.
With `O=C(c1c[nH]nn1)N1C[C@@H]2[C@H](C1)[C@@H]1CC[C@H]2N1S(=O)(=O)c1cccc(F)c1` [Example 5, {(3aR,4S,7R,7aS)-8-[(3-fluorophenyl)sulfonyl]octahydro-2H-4,7-epiminoisoindol-2-yl}(1H-1,2,3-triazol-4-yl)methanone], the IC50 was found to be 26 nM.
In the case of `O=C(c1cnn[nH]1)N1[C@@H]2CC[C@H]1[C@H]1CN(S(=O)(=O)c3ccccc3C(F)(F)F)C[C@H]12` [Example 29, 1H-1,2,3-triazol-5-yl[(3aR,4S,7R,7aS)-2-{[2-(trifluoromethyl)phenyl]sulfonyl}octahydro-1H-4,7-epiminoisoindol-8-yl]methanone] it was 9 nM.
Consider `O=C(c1c[nH]nn1)N1C[C@@H]2[C@H](C1)[C@@H]1CC[C@H]2N1S(=O)(=O)c1ccccc1F` [Example 14, {(3aR,4S,7R,7aS)-8-[(2-fluorophenyl)sulfonyl]octahydro-2H-4,7-epiminoisoindol-2-yl}(1H-1,2,3-triazol-4-yl)methanone], for which the IC50 worked out at 24 nM.
In the case of `O=C(c1c[nH]nn1)N1C[C@@H]2[C@H](C1)[C@@H]1CC[C@H]2N1S(=O)(=O)c1cccc(C(F)(F)F)c1` [Example 2, 1H-1,2,3-triazol-4-yl[(3aR,4S,7R,7aS)-8-{[3-(trifluoromethyl)phenyl]sulfonyl}octahydro-2H-4,7-epiminoisoindol-2-yl]methanone] it was 61 nM.
Consider `O=C(c1c[nH]nn1)N1C[C@@H]2[C@H](C1)[C@@H]1CC[C@H]2N1S(=O)(=O)c1ccccc1Cl` [Example 8, {(3aR,4S,7R,7aS)-8-[(2-chorophenyl)sulfonyl]octahydro-2H-4,7-epiminoisoindol-2-yl}(1H-1,2,3-triazol-4-yl)methanone], for which the 50% inhibitory concentration (IC50) came to 7 nM.
